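The compound was tested at five concentrations on cells cultured in 96-well plates, with a 48-hour exposure period. At the GI50, growth is halved. TGI: concentration producing complete growth inhibition.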
Legend:
Assay in all cases: NCI-60 cell line screen, 48 h
MALME-3M melanoma = test system: MALME-3M melanoma
HCC-2998 colon = test system: HCC-2998 colon
U251 CNS = test system: U251 CNS
SN12C renal = test system: SN12C renal
IGROV1 ovarian = test system: IGROV1 ovarian
RXF 393 renal = test system: RXF 393 renal
HCT-15 colon = test system: HCT-15 colon
HS 578T breast = test system: HS 578T breast
CAKI-1 renal = test system: CAKI-1 renal
MCF7 breast = test system: MCF7 breast

| SMILES | GI50 (MALME-3M melanoma) | TGI (MALME-3M melanoma) | GI50 (HCC-2998 colon) | TGI (HCC-2998 colon) | GI50 (U251 CNS) | TGI (U251 CNS) | GI50 (SN12C renal) | TGI (SN12C renal) | GI50 (IGROV1 ovarian) | TGI (IGROV1 ovarian) | GI50 (RXF 393 renal) | TGI (RXF 393 renal) | GI50 (HCT-15 colon) | TGI (HCT-15 colon) | GI50 (HS 578T breast) | TGI (HS 578T breast) | GI50 (CAKI-1 renal) | TGI (CAKI-1 renal) | GI50 (MCF7 breast) | TGI (MCF7 breast) |
| --- | --- | --- | --- | --- | --- | --- | --- | --- | --- | --- | --- | --- | --- | --- | --- | --- | --- | --- | --- | --- |
| O=S(=O)(Nc1ccc2ccccc2c1)c1ccc(-c2cnc(C3CC3)o2)cc1 | 0.999 µM | 24 µM | 1.48 µM | 6.06 µM | 1.25 µM | 15.7 µM | 3.69 µM | 17.3 µM | 1.08 µM | 14 µM | 0.573 µM | 3.92 µM | 0.557 µM | 19.2 µM | 0.811 µM | 13.2 µM | 0.539 µM | 38 µM | 0.478 µM | 25 µM |
| O=C(Cn1c(C(=O)c2ccccc2)nc2ccccc21)c1ccc(F)cc1 | 11.1 µM | > 100 µM | 6.41 µM | > 100 µM | 4.11 µM | > 100 µM | > 30.7 µM | > 100 µM | 10.9 µM | > 100 µM | 7.29 µM | > 56.9 µM | 3.56 µM | > 100 µM | 11.5 µM | > 100 µM | – | > 30.9 µM | 3.27 µM | > 72 µM |
| NC(=Nc1nc(-c2ccccn2)cc2ccccc12)c1ccccn1 | 0.126 µM | – | – | > 100 µM | 0.111 µM | 18.6 µM | 0.131 µM | 22.7 µM | 0.0212 µM | > 24.1 µM | 0.32 µM | 0.795 µM | 0.000503 µM | > 19.7 µM | 0.316 µM | > 79.4 µM | 0.0422 µM | > 11.9 µM | 0.148 µM | > 100 µM |
| CC1CC(C)C2=NOS3=C2C1=NO3 (centres undefined) | – | > 100 µM | – | > 100 µM | – | > 100 µM | – | > 100 µM | – | > 100 µM | – | > 100 µM | – | > 100 µM | – | > 100 µM | – | > 100 µM | – | > 100 µM |
| Cc1nnc(-c2ccc(C)c(-c3ccc(C(=O)NCc4ccc(Cl)cc4)cc3)c2)o1 | 6.15 µM | 24.9 µM | 17.5 µM | > 25 µM | > 25 µM | > 25 µM | > 18 µM | > 25 µM | > 16.3 µM | > 25 µM | 6.28 µM | > 25 µM | 11.7 µM | > 25 µM | 10.7 µM | > 25 µM | 11.8 µM | > 25 µM | 7.37 µM | > 19 µM |
| CCCCCCN(C)Cc1ccc(OCCOc2ccc(CN(C)CCCCCC)cc2)cc1 | 1.13 µM | 2.87 µM | 0.491 µM | 1.81 µM | 1.08 µM | 2.37 µM | 1.35 µM | 3.08 µM | 1.33 µM | 3.13 µM | 0.834 µM | 2.15 µM | 0.984 µM | 2.83 µM | 1.47 µM | 3.97 µM | 1.35 µM | 2.9 µM | 1.4 µM | 2.79 µM |
| C[C@@H]1CC[C@@H]2[C@@H](C)C[C@H]3[C@@H]4C(C)(C)OC(=O)[C@]4(C)C(=O)[C@@]23C1=O | – | > 100 µM | – | > 100 µM | 31.9 µM | > 100 µM | – | > 100 µM | – | > 100 µM | > 100 µM | > 100 µM | 16.4 µM | > 100 µM | – | > 100 µM | – | > 100 µM | – | > 100 µM |
| CCOc1c(C#N)c2c(N)ncnc2n1C1OC(CO)C(O)C1O (centres undefined) | 3.62 µM | 24.2 µM | 3.92 µM | 28.2 µM | 3.21 µM | > 100 µM | 3.14 µM | > 100 µM | 0.761 µM | 2.54 µM | 2.27 µM | 6.64 µM | 2.15 µM | > 100 µM | 2.12 µM | 14 µM | 3.13 µM | 55.9 µM | 2.45 µM | > 100 µM |
| O=C(Nc1cccnc1)c1ccc2ccc3ccc(C(=O)Nc4cccnc4)nc3c2n1 | > 100 µM | > 100 µM | 0.0648 µM | > 100 µM | 0.0613 µM | > 100 µM | 0.3 µM | > 100 µM | 0.125 µM | > 100 µM | 0.11 µM | 0.342 µM | 0.0518 µM | > 100 µM | 0.434 µM | > 100 µM | 0.135 µM | > 100 µM | 0.137 µM | > 100 µM |
| COc1cc(-c2ccc(NC(=O)NC3CC3)c(OC)c2)ccc1NC(=O)NC1CC1 | 4.99 µM | > 100 µM | 28 µM | > 100 µM | 3.11 µM | > 69.3 µM | 18.8 µM | > 100 µM | 5.83 µM | 52.9 µM | 1.16 µM | 4.42 µM | 1.1 µM | > 100 µM | – | > 28.6 µM | 6.2 µM | > 60.7 µM | 5.69 µM | > 100 µM |
| O=C(NN1C(=O)CSC12CCCC2)C(O)c1ccccc1 (centres undefined) | > 100 µM | > 100 µM | > 100 µM | > 100 µM | > 100 µM | > 100 µM | > 100 µM | > 100 µM | > 100 µM | > 100 µM | > 100 µM | > 100 µM | > 100 µM | > 100 µM | > 100 µM | > 100 µM | > 100 µM | > 100 µM | > 100 µM | > 100 µM |
| C1CCN2CC3CCCN4CCCC(C2C1)C34 (centres undefined) | – | > 100 µM | – | > 100 µM | – | > 100 µM | – | > 100 µM | – | > 100 µM | – | > 100 µM | – | > 100 µM | – | > 100 µM | – | > 100 µM | – | > 100 µM |
| O=C1C(=O)N(c2cccc(C(F)(F)F)c2)C(=O)C(=O)C1c1nc2ccccc2s1 | – | > 100 µM | – | > 100 µM | – | > 100 µM | – | > 100 µM | – | > 100 µM | – | > 100 µM | – | > 100 µM | – | > 100 µM | – | > 100 µM | – | > 100 µM |
| NNC(=S)Nc1cccc(Cl)c1 | – | > 100 µM | – | > 100 µM | – | > 100 µM | – | > 100 µM | – | > 100 µM | – | > 100 µM | – | > 100 µM | – | > 100 µM | – | > 100 µM | – | > 100 µM |
| CC(C)(C)c1ccc(O)c(CN(Cc2cc(C(C)(C)C)ccc2O)C2CCCCC2)c1 | – | 30.8 µM | – | 4.48 µM | – | 30.4 µM | – | 42.1 µM | – | 45.9 µM | – | 30 µM | – | 36.2 µM | – | 45.3 µM | – | > 70.1 µM | – | 35.5 µM |
